In patent publication US5541163A, “Renin inhibiting N-(2-amino-2-oxoethyl)butanediamide derivatives” (Bio-Mega/Boehringer Ingelheim Research Inc., priority 1993, dated 1996):
pIC50: −log10 of the molar value.

target: T1, human renin (Homo sapiens, UniProt P00797); assay: Plasma renin assay (inhibition of human renin, angiotensin I by RIA); assay type: biochemical; settings: human plasma pool, pH 6.0, 2 h incubation at 37°
T1 construct: A human plasma pool is used as the source of both the substrate (angiotensinogen) and the enzyme (renin); from tissue; host or cells: human plasma pool
T1 sequence (P00797 67-406): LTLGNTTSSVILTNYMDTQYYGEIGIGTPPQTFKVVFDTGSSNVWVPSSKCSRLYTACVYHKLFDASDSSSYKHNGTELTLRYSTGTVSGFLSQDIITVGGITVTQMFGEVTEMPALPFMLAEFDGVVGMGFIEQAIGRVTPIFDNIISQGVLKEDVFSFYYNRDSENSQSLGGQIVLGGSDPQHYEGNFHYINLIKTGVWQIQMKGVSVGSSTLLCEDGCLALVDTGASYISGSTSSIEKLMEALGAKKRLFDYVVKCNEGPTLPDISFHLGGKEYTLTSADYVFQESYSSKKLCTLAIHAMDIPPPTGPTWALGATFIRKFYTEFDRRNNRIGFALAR
Method: The assay is performed as follows: The test compound (i.e. the inhibitor) is dissolved in dimethylsulfoxide (1 mM stock solution) and diluted with an aqueous buffer solution of 270 mM 2-(N-morpholino)ethanesulfonic acid and 1% human serum albumin (pH 5.85, also containing dimercaprol and 8-hydroxyquinoline sulfate in accordance with the instructions of the RIA kit noted below) to give an assay mixture in which the final dimethylsulfoxide content is 1% (v/v).
A human plasma pool is used as the source of both the substrate (angiotensinogen) and the enzyme (renin). The reaction is initiated by the addition of 50 μL of human plasma pool to 50 μL of various concentrations of inhibitor in the 1% dimethylsulfoxide assay buffer. The plasma renin activity is measured by the amount of angiotensin I generated at pH 6.0 following a 2 h incubation at 37°.
Quantitation of angiotensin I is performed by radioimmunoassay (RIA kit from New England Nuclear-Dupont, Mississauga, ON, Canada). The enzymatic activity of renin is expressed in ng of angiotensin I generated (/mL/2 h). The extent of inhibition of the reaction is determined from the amount of angiotensin I generated in reference to a control prepared without inhibitor. Nonlinear regression analysis is used to calculate the IC50 values, i.e. the molar concentration of the test compound required to cause a 50% inhibition of the enzyme activity.

How did the pIC50 turn out when `CC(C)C[C@H](O)[C@H](O)[C@H](CC1CCCCC1)NC(=O)[C@@H](CC(=O)N(CC(=O)N(C)C)CC1CC2CCC1C2)Cc1cscn1` (mixture of isomers) [Compound 56, N^4 -{{1(S),2(R),4(S)-and 1(R),2(S),4(R)-{bicyclo[2.2.1]hept-2-yl}methyl}-N^4-[2-(dimethylamino)-2-oxoethyl]-N^1-[1(S)-(cyclohexylmethyl)-2(R),3(S)-dihydroxy-5-methylhexyl]-2(R)-(4-thiazolylmethyl)butanediamide] was run?
The pIC50 was 8.70.

With `CC(C)C[C@H](O)[C@H](O)[C@H](CC1CCCCC1)NC(=O)[C@@H](CC(=O)N(CC(=O)N1CCOCC1)Cc1ccccc1)CC1CC1` [Compound 1, N^4-benzyl-N^4-(2-morpholino-2-oxoethyl)-N^1-[1(S)-(cyclohexylmethyl)-2(R),3(S)-dihydroxy-5-methylhexyl]-2(R)-(cyclopropylmethyl)butanediamide] as the molecule, how does the pIC50 read?
The pIC50 was 7.03.

`CC(C)C[C@H](O)[C@H](O)[C@H](CC1CCCCC1)NC(=O)[C@@H](CC(=O)N(CC(=O)N(C)C)Cc1ccccc1)CC1CC1` [Compound 2, N^4-benzyl-N^4-[2-(dimethylamino)-2-oxoethyl]-N^1-[1(S)-(cyclohexylmethyl)-2(R),3(S)-dihydroxy-5-methylhexyl]-2(R)-(cyclopropylmethyl)butanediamide] was tested. Which pIC50 did it give?
The pIC50 was 7.25.

`CC(C)C[C@H](O)[C@H](O)[C@H](CC1CCCCC1)NC(=O)[C@@H](CC(=O)N(CCc1ccccc1)CC(=O)N(C)C)CC1CC1` [Compound 3, N^4-[2-(dimethylamino)-2-oxoethyl]-N^4-(2-phenylethyl)-N^1-[1(S)-(cyclohexylmethyl)-2(R),3(S)-dihydroxy-5-methylhexyl]-2(R)-(cyclopropylmethyl)butanediamide] was tested. Which pIC50 did it give?
The pIC50 was 7.23.

With `CC(C)C[C@H](O)[C@H](O)[C@H](CC1CCCCC1)NC(=O)[C@@H](CC(=O)N(CCCc1ccccc1)CC(=O)N(C)C)CC1CC1` [Compound 4, N^4-[2-(dimethylamino)-2-oxoethyl]-N^4-(3-phenylpropyl)-N^1-[1(S)-(cyclohexylmethyl)-2(R),3(S)-dihydroxy-5-methylhexyl]-2(R)-(cyclopropylmethyl)butanediamide] as the molecule, how does the pIC50 read?
The pIC50 was 6.66.

With `CC(C)C[C@H](O)[C@H](O)[C@H](CC1CCCCC1)NC(=O)[C@@H](CC(=O)N(CC(=O)N(C)C(C)(C)C)Cc1ccccc1)CC1CC1` [Compound 5, N^4-benzyl-N^4 -{2-[methyl(1,1-dimethylethyl)amino]-2-oxoethyl}-N^1-[1(S)-(cyclohexylmethyl)-2(R),3(S)-dihydroxy-5-methylhexyl]-2(R)-(cyclopropylmethyl)butanediamide] as the molecule, how does the pIC50 read?
Its pIC50 is 6.54.

How did the pIC50 turn out when `CNC(=O)CN(Cc1ccccc1)C(=O)C[C@@H](CC1CC1)C(=O)N[C@@H](CC1CCCCC1)[C@@H](O)[C@@H](O)CC(C)C` [Compound 6, N^4-benzyl-N^4-[2-(methylamino)-2-oxoethyl]-N^1-[1(S)-(cyclohexylmethyl)-2(R),3(S)-dihydroxy-5-methylhexyl]-2(R)-(cyclopropylmethyl)butanediamide] was run?
The pIC50 was 6.46.

With `CC(C)C[C@H](O)[C@H](O)[C@H](CC1CCCCC1)NC(=O)[C@@H](CC(=O)N(CC(N)=O)Cc1ccccc1)CC1CC1` [Compound 7, N^4-(2-amino-2-oxoethyl)-N^4-benzyl-N^1-[1(S)-(cyclohexylmethyl)-2(R),3(S)-dihydroxy-5-methylhexyl]-2(R)-(cyclopropylmethyl)-butanediamide] as the molecule, how does the pIC50 read?
The pIC50 was 6.40.

`CON(C)C(=O)CN(Cc1ccccc1)C(=O)C[C@@H](CC1CC1)C(=O)N[C@@H](CC1CCCCC1)[C@@H](O)[C@@H](O)CC(C)C` [Compound 8, N^4-benzyl-N^4 -{2-[(methoxy)methylamino]-2-oxoethyl}-N^1-[1(S)-(cyclohexylmethyl)-2(R),3(S)-dihydroxy-5-methylhexyl]-2(R)-(cyclopropylmethyl)butanediamide] was tested. Which pIC50 did it give?
The pIC50 was 7.18.

`CC(C)C[C@H](O)[C@H](O)[C@H](CC1CCCCC1)NC(=O)[C@@H](CC(=O)N(CC(=O)N(C)C)Cc1cccc2ccccc12)CC1CC1` [Compound 9, N^4-[2-(dimethylamino)-2-oxoethyl]-N^4-(1-naphthylmethyl)-N^1-[1(S)-(cyclohexylmethyl)-2(R),3(S)-dihydroxy-5-methylhexyl]-2(R)-(cyclopropylmethyl)butanediamide] was tested. Which pIC50 did it give?
The pIC50 was 7.18.

How did the pIC50 turn out when `COc1ccc(CN(CC(=O)N(C)C)C(=O)C[C@@H](CC2CC2)C(=O)N[C@@H](CC2CCCCC2)[C@@H](O)[C@@H](O)CC(C)C)cc1` [Compound 10, N^4-[2-(dimethylamino)-2-oxoethyl]-N^4-[(4-methoxyphenyl)methyl]-N^1-[1(S)-(cyclohexylmethyl)-2(R),3(S)-dihydroxy-5-methylhexyl]-2(R)-(cyclopropylmethyl)butanediamide] was run?
Its pIC50 is 6.36.

`CCN(CC)C(=O)CN(Cc1ccccc1)C(=O)C[C@@H](CC1CC1)C(=O)N[C@@H](CC1CCCCC1)[C@@H](O)[C@@H](O)CC(C)C` [Compound 11, N^4-benzyl-N^4-[2-(diethylamino)-2-oxoethyl]-N^1-[1(S)-(cyclohexylmethyl)-2(R),3(S)-dihydroxy-5-methylhexyl]-2(R)-(cyclopropylmethyl)-butanediamide] was tested. Which pIC50 did it give?
The pIC50 was 6.85.

`CC(C)C[C@H](O)[C@H](O)[C@H](CC1CCCCC1)NC(=O)[C@@H](CC(=O)N(CC(=O)N(C)CCc1ccccn1)Cc1ccccc1)CC1CC1` [Compound 12, N^4-benzyl-N^4 -{2-{methyl[2-(2-pyridinyl)ethyl]amino}-2-oxoethyl}-N^1-[1(S)-(cyclohexylmethyl)-2(R),3(S)-dihydroxy-5-methylhexyl]-2(R)-(cyclopropylmethyl)butanediamide] was tested. Which pIC50 did it give?
Its pIC50 is 7.47.

With `CC(C)C[C@H](O)[C@H](O)[C@H](CC1CCCCC1)NC(=O)[C@@H](CC(=O)N(CC(=O)N(C)C)Cc1ccccn1)CC1CC1` [Compound 13, N^4-[2-(dimethylamino)-2-oxoethyl]-N^4-(2-pyridinylmethyl)-N^1-[1(S)-(cyclohexylmethyl)-2(R),3(S)-dihydroxy-5-methylhexyl]-2(R)-(cyclopropylmethyl)butanediamide] as the molecule, how does the pIC50 read?
Its pIC50 is 6.92.

With `CC(C)C[C@H](O)[C@H](O)[C@H](CC1CCCCC1)NC(=O)[C@@H](CC(=O)N(CC(=O)N(C)C)Cc1cccnc1)CC1CC1` [Compound 14, N^4-[2-(dimethylamino)-2-oxoethyl]-N^4-(3-pyridinylmethyl)-N^1-[1(S)-(cyclohexylmethyl)-2(R),3(S)-dihydroxy-5-methylhexyl]-2(R)-(cyclopropylmethyl)butanediamide] as the molecule, how does the pIC50 read?
Its pIC50 is 6.46.

With `CC(C)C[C@H](O)[C@H](O)[C@H](CC1CCCCC1)NC(=O)[C@@H](CC(=O)N(CC(=O)N(C)CCN(C)C(=O)N1CCOCC1)[C@@H](C)c1ccccc1)Cc1csc(N)n1` [Compound 15, N^4 -{2-{methyl{2-[methyl(morpholinocarbonyl)amino]ethyl}amino}-2-oxoethyl}-N^4-[1(S)-phenylethyl]-N^1-[1(S)-(cyclohexylmethyl)-2(R),3(S)-dihydroxy-5-methylhexyl]-2(R)-[(2-amino-4-thiazolyl)methyl]butanediamide] as the molecule, how does the pIC50 read?
The pIC50 was 9.30.

How did the pIC50 turn out when `CC(C)C[C@H](O)[C@H](O)[C@H](CC1CCCCC1)NC(=O)[C@@H](CC(=O)N(CC(=O)N(C)C)[C@H](C)c1ccccc1)CC1CC1` [Compound 16, N^4-[2-(dimethylamino)-2-oxoethyl]-N^4-[1(R)-phenylethyl]-N^1-[1(S)-(cyclohexylmethyl)-2(R),3(S)-dihydroxy-5-methylhexyl]-2(R)-(cyclopropylmethyl)butanediamide] was run?
The pIC50 was 6.34.

With `CC(C)C[C@H](O)[C@H](O)[C@H](CC1CCCCC1)NC(=O)[C@@H](CC(=O)N(CC(=O)N(C)C)[C@@H](C)c1ccccc1)CC1CC1` [Compound 17, N^4-[2-(dimethylamino)-2-oxoethyl]-N^4-[1(S)-phenylethyl]-N^1-[1(S)-(cyclohexylmethyl)-2(R),3(S)-dihydroxy-5-methylhexyl]-2(R)-(cyclopropylmethyl)butanediamide] as the molecule, how does the pIC50 read?
The pIC50 was 7.47.

How did the pIC50 turn out when `CC(C)C[C@H](O)[C@H](O)[C@H](CC1CCCCC1)NC(=O)[C@@H](CC(=O)N(CC(=O)N(C)C)[C@@H](C)c1cccc2ccccc12)CC1CC1` [Compound 18, N^4-[2-(dimethylamino)-2-oxoethyl]-N^4-[1(S)-(1-naphthylethyl)]-N^1-[1(S)-(cyclohexylmethyl)-2(R),3(S)-dihydroxy-5-methylhexyl]-2(R)-(cyclopropylmethyl)butanediamide] was run?
The pIC50 was 6.77.

How did the pIC50 turn out when `CC(C)C[C@H](O)[C@H](O)[C@H](CC1CCCCC1)NC(=O)[C@@H](CC(=O)N(CC(=O)N(C)C)C[C@H](C)c1ccccc1)CC1CC1` [Compound 19, N^4-[2-(dimethylamino)-2-oxoethyl]-N^4-[2(R)-phenylpropyl]-N^1-[1(S)-(cyclohexylmethyl)-2(R),3(S)-dihydroxy-5-methylhexyl]-2(R)-(cyclopropylmethyl)butanediamide] was run?
Its pIC50 is 7.16.
